In patent US8039490B2, “Benzoyl-piperidine derivatives as dual modulators of the 5-HT2A and D3 receptors” (Hoffmann-La Roche Inc., priority 2006, dated 2011):

Key:
[1] = target: T1, human D2 dopamine receptor (Homo sapiens, UniProt P14416); assay: Radioligand binding, human D2 receptor ([3H]-spiperone); settings: third value of the cell; membranes of transfected HEK-293 EBNA cells, 0.7 nM [3H]-spiperone; read-out: Ki(nM) D3/5HT2A/D2: D2
T1 construct: expressed in transfected cells; host or cells: HEK-293 EBNA cells (transient transfection), membrane preparation
T1 sequence (P14416 whole entry): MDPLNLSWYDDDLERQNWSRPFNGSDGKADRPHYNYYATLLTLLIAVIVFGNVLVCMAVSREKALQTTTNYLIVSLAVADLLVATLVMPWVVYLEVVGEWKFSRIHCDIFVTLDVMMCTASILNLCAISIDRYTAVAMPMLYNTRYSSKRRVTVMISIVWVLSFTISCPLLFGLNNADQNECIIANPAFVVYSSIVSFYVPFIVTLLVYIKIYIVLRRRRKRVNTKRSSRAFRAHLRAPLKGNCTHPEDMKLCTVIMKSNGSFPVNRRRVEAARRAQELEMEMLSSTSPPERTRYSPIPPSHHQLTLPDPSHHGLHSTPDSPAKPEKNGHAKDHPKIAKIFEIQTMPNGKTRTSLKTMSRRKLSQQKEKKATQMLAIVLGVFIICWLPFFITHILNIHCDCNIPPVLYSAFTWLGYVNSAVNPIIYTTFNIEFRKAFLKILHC
Protocol: (§1) The cells were harvested 48 h post-transfection, washed three times with cold PBS and stored at −80° C. prior to use. The pellet was suspended in cold 50 mM Tris-HCl buffer containing 10 mM EDTA (pH 7.4) and homogenized with a Polytron (Kinematica AG, Basel, Switzerland) for 20-30 sec at 12.000 rpm. After centrifugation at 48.000×g for 30 min at 4° C., the pellet was resuspended in cold 10 mM Tris-HCl buffer containing 0.1 mM EDTA (pH 7.4), homogenized, and centrifuged as above. This pellet was further resuspended in a smaller volume of ice cold 10 mM Tris-HCl buffer containing 0.1 mM EDTA (pH 7.4) and homogenized with a Polytron for 20-30 sec at 12.000 rpm. The protein content of this homogenate was determined with the Bio-Rad (Bradford) Protein Assay (Biorad Laboratories GmbH, München, Germany) according to the instructions of the manufacturer using gamma globulin as the standard. This homogenate was stored at −80° C. in aliquots and thawed immediately prior to use.
(§2) Aliquots of membrane preparations were thawed at RT, resupended in assay buffer (D2, D3: 50 mM Tris-HCl, 120 mM NaCl, 5 mM MgCl2, 1 mM EDTA, 5 mM KCl, 1.5 mM CaCl2, pH=7.4; 5-HT2A: 50 mM Tris-HCl, 10 mM MgCl2, 1 mM EGTA, pH=7.4), homogenized with a Polytron for 20-30 sec at 12.000 rpm and adjusted to a final concentration of approximately 7.5 μg protein/well (D2, D3) and 15 μg protein/well (5-HT2A), respectively.
(§3) The binding affinity (Ki) of the compounds was determined using radioligand binding. […] The nonspecific binding was determined with equally composed reaction mixtures in the presence of 10 μM unlabelled spiperone. Per well 45 μl of Microscint 40 (Perkin Elmer, Schwerzenbach, Switzerland) was added, plates for sealed, shaken for 20 min and counted for 3 min on a Topcount Microplate Scintillation Counter (Canberra Packard SA, Zürich, Switzerland) with quenching correction.
(§4) The CPM value for each duplicate of a concentration of competing compound was averaged (y1), then the % specific binding was calculated according to the equation (((y1−non-specific)/(total binding-non-specific))×100). Graphs were plotted with the % specific binding using XLfit, a curve fitting program that iteratively plots the data using Levenburg Marquardt algorithm. The single site competition analysis equation used was y=A+((B−A)/(+((x/C)^D))), where y is the % specific binding, A is the minimum y, B is the maximum y, C is the IC50, x is the log10 of the concentration of the competing compound and D is the slope of the curve (the Hill Coefficient). […] The affinity constant (Ki) was calculated using the Cheng-Prusoff equation KI =(IC50/1+([L]/Kd), where [L] is the concentration of radioligand and Kd is the dissociation constant of the radioligand at the receptor as determined by the saturation isotherm.

[2] = target: T2, human D3 dopamine receptor (Homo sapiens, UniProt P35462); assay: Radioligand binding, human D3 receptor ([3H]-spiperone); settings: first value of the cell; membranes of transfected HEK-293 EBNA cells, 0.5 nM [3H]-spiperone; read-out: Ki(nM) D3/5HT2A/D2: D3
T2 construct: expressed in transfected cells; host or cells: HEK-293 EBNA cells (transient transfection), membrane preparation
T2 sequence (P35462 whole entry): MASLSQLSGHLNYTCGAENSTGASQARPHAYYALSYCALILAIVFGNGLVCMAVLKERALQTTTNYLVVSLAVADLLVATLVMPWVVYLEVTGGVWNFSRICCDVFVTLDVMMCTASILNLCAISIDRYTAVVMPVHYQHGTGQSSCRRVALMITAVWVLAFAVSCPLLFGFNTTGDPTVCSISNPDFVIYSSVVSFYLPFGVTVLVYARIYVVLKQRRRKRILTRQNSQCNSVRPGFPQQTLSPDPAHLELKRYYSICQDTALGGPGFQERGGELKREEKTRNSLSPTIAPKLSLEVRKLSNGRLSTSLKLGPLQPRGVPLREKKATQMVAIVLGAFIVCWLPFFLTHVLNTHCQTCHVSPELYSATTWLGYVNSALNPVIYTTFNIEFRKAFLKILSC
Protocol: as §1, §2, §3, §4

[3] = target: T3, human 5-HT2A serotonin receptor (Homo sapiens, UniProt P28223); assay: Radioligand binding, human 5-HT2A receptor ([3H]-ketanserin); settings: second value of the cell; membranes of transfected HEK-293 EBNA cells, 1.1 nM [3H]-ketanserin; read-out: Ki(nM) D3/5HT2A/D2: 5HT2A
T3 construct: expressed in transfected cells; host or cells: HEK-293 EBNA cells (transient transfection), membrane preparation
T3 sequence (P28223 whole entry): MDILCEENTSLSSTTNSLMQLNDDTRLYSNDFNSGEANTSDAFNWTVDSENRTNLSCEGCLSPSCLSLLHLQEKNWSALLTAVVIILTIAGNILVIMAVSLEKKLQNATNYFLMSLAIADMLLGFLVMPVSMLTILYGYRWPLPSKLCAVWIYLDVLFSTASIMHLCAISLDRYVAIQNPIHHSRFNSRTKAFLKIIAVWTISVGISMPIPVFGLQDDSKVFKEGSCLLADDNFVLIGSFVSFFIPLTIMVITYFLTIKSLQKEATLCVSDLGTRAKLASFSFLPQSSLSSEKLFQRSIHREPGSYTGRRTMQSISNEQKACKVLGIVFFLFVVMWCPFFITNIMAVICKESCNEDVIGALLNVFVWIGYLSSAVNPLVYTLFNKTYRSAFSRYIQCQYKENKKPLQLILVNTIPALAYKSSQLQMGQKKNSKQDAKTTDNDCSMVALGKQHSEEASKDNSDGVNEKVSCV
Protocol: as §1, §2, §3, §4

Compound | Ki [1] [nM] | Ki [2] [nM] | Ki [3] [nM]
CN(C(=O)N[C@H]1CC[C@H](CCN2CCC(C(=O)c3ccc(F)cc3)CC2)CC1)c1ccc(Cl)cc1 [Example 42, Trans-1-(4-Chloro-phenyl)-3-(4-{2-[4-(4-fluoro-benzoyl)-piperidin-1-yl]-ethyl}-cyclohexyl)-1-methyl-urea] | 352 | 146 | 11
CN(C)C(=O)N[C@H]1CC[C@H](CCN2CCC(C(=O)c3ccc(F)cc3)CC2)CC1 [Example 42A7, Trans-3-(4-{2-[4-(4-Fluoro-benzoyl)-piperidin-1-yl]-ethyl}-cyclohexyl)-1,1-dimethyl-urea] | 176 | 86 | 26
COCCC(=O)N[C@H]1CC[C@H](CCN2CCC(F)(C(=O)c3ccc(F)cc3)CC2)CC1 [Example 50, N-trans (4-{2-[4-Fluoro-4-(4-fluoro-benzoyl)-piperidin-1-yl]-ethyl}-cyclohexyl)-3-methoxy-propionamide] | 288 | 29 | 2
Cc1nc(-c2cccc(C(=O)N[C@H]3CC[C@H](CCN4CCC(O)(C(=O)c5ccc(F)cc5)CC4)CC3)c2)no1 [Example 57, N-trans (4-{2-[4-(4-Fluoro-benzoyl)-4-hydroxy-piperidin-1-yl]-ethyl}-cyclohexyl)-3-(5-methyl-[1,2,4]oxadiazol-3-yl)-benzamide] | 1330 | 53 | 21
COCCC(=O)N[C@H]1CC[C@H](CCN2CCC(C(=O)c3ccc(F)cc3F)CC2)CC1 [Example 58, N-trans (4-{2-[4-(2,4-Difluoro-benzoyl)-piperidin-1-yl]-ethyl}-cyclohexyl)-3-methoxy-propionamide] | 3540 | 19 | 80
O=C(CO)NC1CCC(CCN2CCC(C(=O)c3ccc(F)cc3F)CC2)CC1 (stereo not drawn) [Example 63A14, N-(4-{2-[4-(2,4-Difluoro-benzoyl)-piperidin-1-yl]-ethyl}-cyclohexyl)-2-hydroxy-acetamide] | 8540 | 44 | 83
O=C(Nc1ccc(Cl)cc1)N[C@H]1CC[C@H](CCN2CCC(C(=O)c3ccc(F)cc3F)CC2)CC1 [Example 64, 1-(4-Chloro-phenyl)-3-trans (4-{2-[4-(2,4-difluoro-benzoyl)-piperidin-1-yl]-ethyl}-cyclohexyl)-urea] | 4000 | 4 | 26
CC(=O)N[C@H]1CC[C@H](CCN2CCC(C(=O)c3ccccc3Cl)CC2)CC1 [Example 72, N-trans (4-{2-[4-(2-Chloro-benzoyl)-piperidin-1-yl]-ethyl}-cyclohexyl)-acetamide] | 2130 | 39 | 26
Trans-1-(4-Chloro-phenyl)-3-(4-{2-[4-(4-fluoro-benzoyl)-piperidin-1-yl]-ethyl}-cyclohexyl)-urea [Example 39] | 1840 | 2 | 3
Trans-1-(4-Ethoxy-phenyl)-3-(4-{2-[4-(4-fluoro-benzoyl)-piperidin-1-yl]-ethyl}-cyclohexyl)-urea [Example 40] | 502 | 8 | 9
